Data on 1 substance can be found in US8022036B2, “Use of thymosin alpha 1 for the treatment of immunological diseases” (Sigma-Tau Industrie Farmaceutiche Riunite S.p.A., priority 2006, dated 2011).

No end group written: not given here.

Assay [1] deals with A. fumigatus. Briefly: Aspergillosis in experimental HSCT after adoptive transfer of fungus-pulsed DCs. The assay is classed as in vivo, mouse. As to the method:
(§1) Human peripheral blood mononuclear cells were obtained from healthy donors and seven recipients of T-cell depleted haploidentical HSCT, upon written informed consent. Donor typing, engraftment and GVHD were assessed as described (Blood. 2005; 106; 4397-4406). Experimental HSCT model Lethally irradiated (8 Gy) C57BL6 mice were infused with T cell-depleted bone marrow cells from BALB/c mice (Blood. 2003; 102:3807-3814). For GVHD, purified donor CD3+ T splenocytes were added to the graft (Science. 2002; 295:2097-2100). Individual mice were graded weekly from 0-2 for each GVHD criterion (see legend to FIG. 3) without knowledge of treatment group.
The strain of A. fumigatus, the culture conditions and infection were as described in Blood. 2004; 103:4232-4239. Mice were anesthetized with 2.5% avertin (Sigma Chemical Co, St. Louis, Mo.). Quantification of fungal growth in the lungs was done by the chitin assay and results are expressed as micrograms of glucosamine per pair of lungs, and PAS staining was done as described in Blood. 2004; 103:4232-4239.
Mice received twice intraperitoneal injections of DCs, at weekly interval, starting a day after HSCT and infected a week after the last DC administration. Three days later, lung homogenates, CD4+ T cells (>98% on FACS analysis), CD4+CD25− (>98%) or CD4+CD25+ (>82%) purified with the specific Miltenyi Biotec isolation kits were assessed for pattern of pro- and anti-inflammatory (TNF-a/IL-10 in lung homogenates), Th1 (IFN-γ) or Th2 (IL-4) cytokine production by CD4+ cells stimulated with Aspergillus-pulsed DCs (Blood. 2003; 102:3807-3814) frequency of CD25+ IL-10^+ TGF-β+ T reg cells, lymphoproliferation and gene expression by RT-PCR. For proliferation, TLN CD4+ T lymphocytes were plated (10^5 cells/well) with 10^5 cells/well irradiated allogeneic splenocytes or autologous spDCs pulsed with conidia or 10 μg/mL Con A for five days before H^3-thymidine labeling.
Lethally irradiated C57BL/6 mice received=2×10^6 T cell-depleted allogeneic bone marrow cells from BALB/c mice 2 wk before the intratracheal injection of 2×10^8/80 μl saline Aspergillus conidia. One and seven days after transplantation, mice received Aspergillus-pulsed GM- or FL-DCs grown in Thymosin alpha 1, intraperitoneally.
(§2) Resistance to infection was assessed in terms of MST (median survival time in days) and fungal growth in the lung ([…] glucosamine content, bars indicating standard errors) 3 days after infection or at the time of death (A). […] The degree of systemic GVHD was assessed by a scoring system that sums changes in five clinical parameters: weight loss, posture (hunching), activity, fur texture, and skin integrity (maximum index=10). […]

Assay [2] in a line: GVHD in experimental HSCT with donor T cells and DCs. The assay is classed as in vivo, mouse. The conditions noted are these: 10^5 donor T cells plus Thymosin alpha 1-treated GM-DCs, uninfected mice. As to the method: as §1
Mice were either left uninfected for the assessment of GVHD or infected for the assessment of susceptibility to infection. […]
as §2

Assay [3] has as its system peripheral CD14+ cells (GM-DCs, FL-DCs). Description: Human DC generation from peripheral CD14+ cells, surface expression. It is filed as cell-based. An excerpt: GM-DCs or FL-DCs were obtained from purified CD14+ monocytes from healthy donors or transplanted patients (1 month post-HSCT) cultured in Iscove's modified medium for 7-9 days, in the presence of rGM-CSF (Schering-Plough, Milan, Italy) and rIL-4 (Peprotech, Inalco, Milan, Italy) or FLT3-L (Immunex Corporation, Seattle, Wash.) (Blood. 2004; 103:4232-4239). DC recovery was between 20-30% reduced in cultures from transplanted patients. Murine GM-DCs or FL-DCs were obtained from bone marrow cells for 7-9 days, as described (Blood. 2004; 103:4232-4239). Thymosin alpha 1 and sThymosin alpha 1 were added to the cultures at 20 ng/mL. DCs (>99% CD11c+ consisting of 90-95% CD8-, 5-10% CD8+, and 1-5% B220+ cells) were purified from spleens (spDCs) by magnetic-activated sorting using CD11c MicroBeads and MidiMacs (Miltenyi Biotech). DC populations were further separated into CD8−, CD8+ and B220+ fractions by means of CD8 or B220 MicroBeads (Miltenyi Biotech). DCs were pulsed in serum-free Iscove medium for 24 hours with live unopsonized Aspergillus conidia or Zymosan from Saccharomyces cerevisiae (Sigma) or CpG-ODN 2006 as described.7 Phagocytosis was done as described (Blood. 2004; 103:4232-4239). Photographs were taken using a high Resolution Microscopy Color Camera AxioCam, using the AxioVision Software Rel. 3.1 (Carl Zeiss, Milan, Italy).
DCs were analyzed for antigen expression with a FACScan flow cytofluorometer (Becton Dickinson, Mountain View, Calif.) equipped with CELLQuest™ software and using conjugated mAbs from PharMingen (Blood. 2004; 103:4232-4239).
(A) Surface expression of CD11c, CD1a and CD123 on DCs derived from peripheral CD14+ cells of different donors with GM-CSF/IL-4 (GM-DCs) or FLT3L (FL-DCs) in the presence of Thymosin alpha 1. Percent of positive cells is indicated.

Assay [4] has as its system methylcholanthrene-induced fibrosarcoma. The following applies: mice; cited from earlier work.
[5] abbreviates: GM-CSF/IL-4-treated cultures, healthy donors.

In the case of “Thymosin alpha 1: naturally occurring thymic peptide; supplied as purified, endotoxin-free sterile lyophilized acetylated polypeptide from SciClone Pharmaceuticals (Ac-SDAAVDTSSEITTKDLKEKKEVVEEAEN; UniProt P06454 2-29, looked up)”, the “survival to infection in the presence of donor T cells” value in assay [1] (donor T cells plus Thymosin alpha 1-treated GM-DCs) is “survived infection”. Also, in assay [1] (mice infused with Thymosin alpha 1-treated GM-DCs, 3 days after infection), the “local inflammatory cell recruitment and reaction in the lungs (histopathology)” value is “few healing infiltrates of inflammatory cells with no evidence of bronchial wall damage and inflammatory response and low”. In addition, the “vaccinating potential of FL-DCs” value in assay [1] (transfer of Thymosin alpha 1-treated FL-DCs) is “would not affect the vaccinating potential of FL-DCs”. The “protection from aspergillosis (survival, fungal growth)” value in assay [1] (transfer of Thymosin alpha 1-treated GM-DCs, intraperitoneally) is reported as “complete protection”. In assay [2], the “acceleration of GVHD induction by GM-DCs” value is reported as “totally prevented the effect”. The “mobilization of CD123+ pDCs and CD1a+ DCs in FLT3-L cultures” value in assay [3] (FLT3-L cultures) was “No such effects were observed”. In addition, in assay [3] (setting [5]), the “mobilization of CD1a+DCs” value is recorded as “decreasing that of CD1a+DCs” and the “mobilization of CD123+ pDCs” value is given as “promoted the mobilization of CD123+ pDCs”. For the same substance, in assay [4], the pulmonary metastases entry is given as “reduced”.
